Assay results taken from article PMC11017252, “Copper(II) Complexes with 2,2′:6′,2″-Terpyridine Derivatives Displaying Dimeric Dichloro−μ–Bridged Crystal Structure: Biological Activities from 2D and 3D Tumor Spheroids to In Vivo Models” (Journal of Medicinal Chemistry, 2024).

What was measured:
[1] = tested on: HCT116, A2780, A549, and MCF7 cell lines; parameters: method as in PMID 28702618; settings: cited from earlier work
CAM = tested on: CAM; parameters: method as in PMID 33823390; settings: cited from earlier work
[2] = Stability and solubility in biological medium (RPMI) by UV-vis; type: physicochemical; settings: colorless RPMI, 50 μM, 37 °C
Method: The stability of complexes 2, 3, 5, and 7 was assessed by UV–vis spectroscopy at 0, 24, and 48 h of incubation at 37 °C.
In Figure S18, it is possible to observe the spectra of all Cu(II) complexes, where high-energy absorption bands correspond to π → π* and n → π* transitions with peaks in the 230–330 and 330–400 nm ranges, respectively, that are associated with the aromatic rings of terpyridines.[39],[49] Analyzing the spectra of complexes 2 and 3, it is possible to detect the existence of 3 bands (maximum ∼240, ∼ 290, and between 320 and 340 nm). […] Complex 7 only has 2 bands of maximum absorbance at 290 nm and between 320 and 340 nm.
Nevertheless, all Cu(II) complex solutions were freshly prepared and added immediately to cells.

chicken embryos = test: Ex-ovo chick chorioallantoic membrane (CAM) assay; type: in vivo; settings: IC50, vs DMSO control
[3] = tested on: HCT116 (colorectal carcinoma cell line); test: MTS cell viability assay, 2D culture, HCT116; type: cell-based, human; settings: 48 h of exposure
Method: (§1) The in vitro cytotoxic potential of Cu(II) complexes in tumor and healthy cells was assessed using the MTS assay, a colorimetric method that allows the quantification of viable cells in culture.[46]
Cell culture and maintenance
(§2) The cancer cell lines HCT116 (colorectal carcinoma) and A2780 (ovarian carcinoma) were obtained
(§3) from the American Type Culture Collection (ATCC®, Manassas, VA, USA), as well as the normal
human primary dermal fibroblasts.
(§4) Apart from the A2780 cell line, which was cultured in Roswell Park Memorial Institute (RPMI)
(§5) medium, all cells were cultured in Dulbecco’s modified Eagle medium (DMEM). Both media were
(§6) supplemented with 10% (v/v) fetal bovine serum (FBS) and 1% (v/v) of a Pen/Strep
(§7) (Penicillin/Streptomycin) solution. To maintain the resistant phenotype of the HCT116DoxR cell line,
(§8) the medium was additionally supplemented with 3.6 μM Dox4. All media and supplements were
(§9) purchased from Thermo Fischer Scientific (Waltham, MA, USA).
(§10) Cells were maintained in 25 cm2 T-flasks (T25) in a humidified atmosphere at 37 °C and 5% (v/v) CO
(§11) (SANYO CO2 Incubator, Electric Biomedical Co., Osaka, Japan).
(§12) The effect of Cu(II) complexes on cell viability was studied in HCT116, HCT116DoxR, and A2780
(§13) cancer cell lines and in normal human primary fibroblasts. Cells were seeded in a density of 0.75×105
(§14) cells/mL into 96-well plates and incubated in a humidified atmosphere at 37 °C and 5% (v/v) CO2 for
(§15) 24 h. After incubation, complexes were weighed, immediately solubilized in 100% (v/v) DMSO and
(§16) diluted for the final concentration with cell culture medium. The medium in each well was replaced by
(§17) a solution of fresh medium containing each Cu(II) complex (concentrations ranging from 0.01 μM to
(§18) as negative and positive controls, respectively.
(§19) Following a second incubation period of 48 h in the same conditions, the supernatant of each well was
(§20) replaced by a solution containing MTS reagent (3-(4,5-dimethylthiazol-2-yl)-5-(3-
(§21) carboxymethoxyphenyl)-2-(4-sulfophenyl)-2H-tetrazolium) provided by the CellTiter 96® AQueous
(§22) Non-Radioactive Cell Proliferation Assay Kit (Promega, Madison, WI, EUA) for a 30 minutes
(§23) incubation. The percentage of viable cells was indirectly determined by the spectrophotometric
(§24) quantification at 490 nm in a microplate reader, Tecan Infinite M200 (Tecan, Männedorf, Switzerland)
(§25) of formazan production, resultant from the reduction of the MTS reagent by mitochondrial
(§26) dehydrogenases. Since these enzymes are only active in viable cells, the absorbance value measured is
(§27) directly proportional to the percentage of viable cells in culture5.
(§28) By analysing the cell viability as a function of log10(concentration) using Prism 8 (GraphPad
(§29) in cell viability) of each complex in the respective cell line at 48 h. The selective index (SI) for each
(§30) complex was also determined by dividing the IC50 of human fibroblasts by the respective IC50 in each
(§31) cancer cell line (allowing us to understand how much active a complex is in tumor versus normal cell).

[4] = tested on: HCT116DoxR (Dox-resistant colorectal carcinoma cell line); test: MTS cell viability assay, 2D culture, HCT116DoxR; settings: read-out: IC50 (μM) HCT116DoxR, 48 h of exposure
Method: as §1
In this regard, cell viability was performed for each of the ligands on HCT116DoxR and fibroblasts.
Cell culture and maintenance
as §2, §3
human primary dermal fibroblasts.
as §4, §5, §6, §7, §8, §9, §10, §11, §12, §13, §14, §15, §16, §17, §18, §19, §20, §21, §22, §23, §24, §25, §26, §27

[5] = tested on: A2780 (ovarian carcinoma cell line); test: MTS cell viability assay, 2D culture, A2780; type: cell-based, human; settings: 48 h of exposure
Method: as §1
Cell culture and maintenance
as §2, §3
human primary dermal fibroblasts.
as §4, §5, §6, §7, §8, §9, §10, §11, §12, §13, §14, §15, §16, §17, §18, §19, §20, §21, §22, §23, §24, §25, §26, §27, §28, §29, §30, §31

[6] = tested on: normal human primary dermal fibroblasts; test: MTS cell viability assay, normal fibroblasts; type: cell-based; settings: 48 h of exposure
Method: as §1
Cell culture and maintenance
as §2, §3
human primary dermal fibroblasts.
as §4, §5, §6, §7, §8, §9, §10, §11, §12, §13, §14, §15, §16, §17, §19, §20, §22, §23, §24, §25

pUC18 plasmid DNA = test: pDNA cleavage in vitro (agarose gel electrophoresis); type: biochemical, E. coli; settings: for concentration at which the interaction with pDNA reaches saturation / pDNA cleavage mode: 100 ng pUC18, 24 h; for pDNA cleavage mode: 5–100 μM complex; for effect of NaN3 (singlet oxygen scavenger) on pDNA cleavage by the complex: 24 h, 50 μM complex + 50 μM NaN3
HCT116DoxR cells [7] = test: Cell cycle progression (PI, flow cytometry); settings: IC50, thymidine double block
Source text: Therefore, we have assessed the cytostatic potential of complexes 2, 3, 5, and 7, and their ability to interfere with the progression of the cell cycle using the fluorescent marker PI. Since this marker can intercalate with DNA, the measurement of the fluorescence emitted by flow cytometry makes it possible to assess the DNA content at each stage of the cell cycle (G0/G1, S, and G2/M).[67] To ensure that all the cells were in the same phase before their exposure to the complexes, a double block was carried out with thymidine, a DNA synthesis inhibitor.[67]
HCT116DoxR cell line was seeded in 6-well plates in a density of 1×10^5 cells/mL and incubated for
24 h. Afterwards, the culture medium was replaced by medium with IC50 concentrations of different
HCT116DoxR cell line was seeded in 6-well plates in a density of 1×10^5 cells/mL, incubated for 8 h in
a humidified atmosphere at 37 °C and 5% (v/v) CO2, and later synchronized in early S-phase with a 2
mM thymidine solution (Merck, Germany) for a 16 h period. Later, medium with thymidine was
replaced by fresh media and, after 8 h a second block with thymidine was performed in the same
concentrations of Cu(II) complexes. 0.1% (v/v) DMSO was used as the vehicle control while 5 μM
After treatment, cells were incubated for 9, 12,

HCT116DoxR cells [8] = test: Annexin V-FITC/PI apoptosis assay by flow cytometry; settings: 48 h; for cells (%) early apoptosis / cells (%) late apoptosis / cells (%) necrosis / cells (%) viable / percentage of apoptosis (early + late): complexes at IC50, Dox 6 μM, cisplatin 5 μM; for fold increase in apoptotic cells, normalized to DMSO: complexes at IC50, cisplatin 5 μM
Method: To evaluate the cell death mechanism involved in the cytotoxic effect of the selected complexes, a double-staining with Annexin V-FITC and PI was performed. […] The use of Annexin V conjugated with the fluorophore FITC allows the quantification of this interaction and subsequent identification of cells in apoptosis by flow cytometry. Furthermore, PI is a fluorophore that can intercalate with DNA and that can only enter the cell when the membrane is either compromised or ruptured, making it possible to identify cells undergoing late apoptosis and necrosis. Therefore, the double staining makes it possible to distinguish between viable cells (FITC^–; IP^–), those undergoing initial apoptosis (FITC^+; IP^–), those undergoing late apoptosis (FITC^+; IP^+), and those undergoing necrosis (FITC^–; IP^+).[55],[58]
Evaluation of apoptosis induction in HCT116DoxR cell line by flow cytometry The induction of apoptosis in HCT116DoxR cell line was evaluated by flow cytometry, using the
Annexin V-FITC Apoptosis Detection Kit (Thermo Fisher Scientific, Waltham, MA, USA). Cells
were seeded in 6-well plates at a cell density of 1×10^5 cells/mL and incubated for 24 h. Afterwards,
culture medium was replaced by medium with different Cu(II) complexes at their IC50 concentrations.
After 48 h of incubation, cells were washed with PBS 1x, detached from each well with TrypLETM
Express and washed again with PBS 1x. Cells were then resuspended in 1x annexin-binding buffer and
incubated at rt for 15 min with Annexin V-FITC and 100 μg/mL PI.
All samples were analysed by an Attune® Acoustic Focusing Flow Cytometer (Thermo Fischer
Scientific, Waltham, MA, USA) and the results were processed with Attune® Cytometric software

HCT116DoxR spheroids = test: MTS cell viability assay in 3D HCT116DoxR spheroids; type: cell-based, human; settings: 6-day-old spheroids, 48 h of exposure
EB–ct-DNA adduct = test: Ethidium bromide displacement fluorescence assay; type: binding, calf; settings: PBS; for apparent binding constant (Kapp): EB displacement, KEB = 1 × 10^7 M^–1; for Stern–Volmer quenching constant KSV: EB–ct-DNA, 0–40 μM complex
fibroblasts = test: Cell migration (wound healing) assay; type: cell-based, human; settings: 24 h; complexes at IC50, Dox 0.4 μM; vs DMSO
Source text: A wound healing assay was therefore carried out on fibroblasts to study the influence of the Cu(II) complexes on cell migration in vitro. Skin fibroblasts were the model chosen for this assay as they are essential for regenerating damage in this tissue.[85] […]
intrinsic binding constant Kb can be obtained from the ratio of the slope to the intercept of the linear fit of the plot [DNA]/[εa−εf] versus [DNA].
For emission quenching experiments, equimolar solution of ct-DNA and ethidium bromide (EB, Sigma Aldrich) was prepared and allowed to incubate for 2 h in the dark. The tested complexes were titrated into the formed EB–ct-DNA adduct and incubated for additional 30 min. The final concentration of the EB–ct-DNA adduct was 50 μM and the concentration of the complexes varied from 0 to 40 μM. The fluorescence spectra were recorded on FLS-980 spectrofluorometer (Edinburgh Instruments, Livingston, United Kingdom) with excitation wavelength 515 nm and emission wavelength of 620 nm. The apparent binding constant (Kapp) was calculated using the Equations : […]
where I0 and I are the fluorescence intensity in the absence and presence of the complexes; KSV is the Stern-Volmer quenching constant; [Q] is the concentration of the complexes; [Q1/2] is the concentration of the complex causing 50% reduction in the fluorescence intensity; K = 1×107 […]
conditions mentioned before until the presence of a confluent monolayer was detected. A scratch was made on the surface of each well using a sterile 200 μL micropipette tip and the cells were […]
Each plate was then incubated for 24 h in the same conditions mentioned before. […]
The width of each scratch in each image was measured via ImageJ software. […]
The ex-ovo CAM assay was performed to evaluate the copper(II) complexes’ effect on angiogenesis, as already described in literature11,12. […] Newly formed blood vessels were manually counted via ImageJ software. […]
All results were expressed as mean ± SEM of at least two independent biological assays, each obtained by technical duplicates, unless otherwise specified. […]

BAX and BCL-2 = BAX and BCL-2 protein expression by Western Blot; type: cell-based, human; settings: HCT116DoxR, 48 h, IC50; normalized to β-actin

Row | Compound | maximum absorbances after 24 or 48 h compared to 0 h (reduction of solubility) [2] | formation of new blood vessels after 24 h (chicken embryos) | formation of new blood vessels after 48 h (chicken embryos) | IC50 [3] [µM] | IC50 [4] [µM] | IC50 [5] [µM] | IC50 [6] [µM] | concentration at which the interaction with pDNA reaches saturation (pUC18 plasmid DNA) [μM] | pDNA cleavage mode (pUC18 plasmid DNA) | effect of NaN3 (singlet oxygen scavenger) on pDNA cleavage by the complex (pUC18 plasmid DNA) | cell cycle progression after 12 h (HCT116DoxR cells [7]) | cell cycle progression after 18 h (HCT116DoxR cells [7]) | cells (%) early apoptosis (HCT116DoxR cells [8]) [%] | cells (%) late apoptosis (HCT116DoxR cells [8]) [%] | cells (%) necrosis (HCT116DoxR cells [8]) [%] | cells (%) viable (HCT116DoxR cells [8]) [%] | percentage of apoptosis (early + late) (HCT116DoxR cells [8]) [%] | fold increase in apoptotic cells, normalized to DMSO (HCT116DoxR cells [8]) [fold] | IC50 (HCT116DoxR spheroids) [µM] | apparent binding constant (Kapp) (EB–ct-DNA adduct) | further results
1 | Cn1cccc1-c1cc(-c2ccccn2)nc(-c2ccccn2)c1.[Cl][Cu][Cl] |  |  |  |  |  |  |  |  |  |  |  |  |  |  |  |  |  |  |  |  | cytotoxic activity [1]: no cytotoxic activity
2 | F[P-](F)(F)(F)(F)F.[Cl][Cu].c1ccc(-c2cc(-c3ccc4ccccc4n3)cc(-c3ccccn3)n2)nc1 [[Cu(4′-(2-quinolinyl)-terpy)Cl](PF6)] |  |  |  |  |  |  |  |  |  |  |  |  |  |  |  |  |  |  |  |  | toxicity in an in vivo model of CAM (CAM): low toxicity
3 | COc1ccc(-c2cc(-c3ccccn3)nc(-c3ccccn3)c2)c2ccccc12.COc1ccc(-c2cc(-c3ccccn3)nc(-c3ccccn3)c2)c2ccccc12.F[P-](F)(F)(F)(F)F.F[P-](F)(F)(F)(F)F.[Cl][Cu+].[Cl][Cu+] [complex 3, [Cu2Cl2(4′-(4-Methoxy-1-naphthyl)-terpy)2](PF6)2] | slight decrease | antiangiogenic potential | greater decrease in the % of blood vessels formed | 0.13 ± 0.02 | 0.15 ± 0.01 | 0.66 ± 0.07 | 6.24 ± 0.03 | 50 | single strands | partially reversed | delays cell cycle progression in the G2/M phase | delay in cycle progression in the G0/G1 phase | 51.3 ± 5.7 | 14.9 ± 3.6 | 0.2 ± 0.2 | 33.7 ± 3.6 | 65 to 70 | ~6.4 | 6.35 ± 0.12 | 3.07 × 10^6 M^–1 | Stern–Volmer quenching constant KSV (EB–ct-DNA adduct): 6060 M⁻¹; fibroblast migration (% of remission) (fibroblasts): lower compared to the positive control Dox; expression of BAX compared to the DMSO control (BAX and BCL-2): decreases; expression of BCL-2 compared to the DMSO control (BAX and BCL-2): increases
4 | F[P-](F)(F)(F)(F)F.F[P-](F)(F)(F)(F)F.[Cl][Cu].[Cl][Cu].c1ccc(-c2cc(-c3ccco3)cc(-c3ccccn3)n2)nc1.c1ccc(-c2cc(-c3ccco3)cc(-c3ccccn3)n2)nc1 [complex 5, [Cu2Cl2(4′-(2-Furanyl)-terpy)2](PF6)2] | slight decrease | antiangiogenic potential | greater decrease in the % of blood vessels formed | 0.26 ± 0.03 | 0.22 ± 0.01 | 0.79 ± 0.05 | 12.57 ± 0.02 | 50 | single and double strands | almost completely reversed | delays cell cycle progression in the G2/M phase | delay in cycle progression in the G0/G1 phase | 47.2 ± 10.2 | 18.7 ± 5.4 | 0.2 ± 0.2 | 33.9 ± 5.3 | 65 to 70 | ~6.4 | 14 ± 0.6 | 1.84 × 10^6 M^–1 | Stern–Volmer quenching constant KSV (EB–ct-DNA adduct): 3640 M⁻¹; fibroblast migration (% of remission) (fibroblasts): lower compared to the positive control Dox; expression of BAX compared to the DMSO control (BAX and BCL-2): decreases; expression of BCL-2 compared to the DMSO control (BAX and BCL-2): increases
